Columns and labels:
Assay in all cases: relative viability (nuclei count vs DMSO), 5 days (fraction); higher = more cells survive
Wnt-C59 + Trametinib = compound: CC1=NC=CC(=C1)C2=CC=C(C=C2)CC(=O)NC3=CC=C(C=C3)C4=CN=CC=C4 [Wnt-C59] + CC(=O)Nc1cccc(-n2c(=O)n(C3CC3)c(=O)c3c(Nc4ccc(I)cc4F)n(C)c(=O)c(C)c32)c1 [Trametinib] (partner 0.02 µM)
Method in brief: (§1)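 Relative viability divides the nuclei count in treated wells by that in vehicle wells. Lung cancer cell lines were seeded in 1536-well plates, dosed by pin tool the next day, and fixed and stained after 5 days in one step with final 0.05% Triton X-100, 1% formaldehyde and 1 ug/ml Hoechst. Dosing was a single drug or a fixed anchor-drug dose plus five library-drug doses (not always all listed) in √10 steps, and values are medians of duplicate plates imaged at 4×.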

Wnt-C59 + Phenformin = compound: CC1=NC=CC(=C1)C2=CC=C(C=C2)CC(=O)NC3=CC=C(C=C3)C4=CN=CC=C4 [Wnt-C59] + N=C(N)NC(=N)NCCc1ccccc1 [Phenformin] (partner 250 µM)
Method in brief: as §1

Wnt-C59 + Lapatinib = compound: CC1=NC=CC(=C1)C2=CC=C(C=C2)CC(=O)NC3=CC=C(C=C3)C4=CN=CC=C4 [Wnt-C59] + CS(=O)(=O)CCNCc1ccc(-c2ccc3ncnc(Nc4ccc(OCc5cccc(F)c5)c(Cl)c4)c3c2)o1 [Lapatinib] (partner 2 µM)
Method in brief: as §1

Lapatinib + Trametinib = compound: CS(=O)(=O)CCNCc1ccc(-c2ccc3ncnc(Nc4ccc(OCc5cccc(F)c5)c(Cl)c4)c3c2)o1 [Lapatinib] + CC(=O)Nc1cccc(-n2c(=O)n(C3CC3)c(=O)c3c(Nc4ccc(I)cc4F)n(C)c(=O)c(C)c32)c1 [Trametinib] (partner 0.02 µM)
Method in brief: as §1

UMC-11
relative viability (Wnt-C59 + Trametinib; first compound 0.001 µM): 0.654
relative viability (Wnt-C59 + Trametinib; first compound 0.01 µM): 0.812
relative viability (Wnt-C59 + Trametinib; first compound 0.03162 µM): 0.698
relative viability (Wnt-C59 + Trametinib; first compound 0.1 µM): 0.758
relative viability (Wnt-C59 + Phenformin; first compound 0.001 µM): 0.305
relative viability (Wnt-C59 + Phenformin; first compound 0.01 µM): 0.282
relative viability (Wnt-C59 + Phenformin; first compound 0.03162 µM): 0.328
relative viability (Wnt-C59 + Phenformin; first compound 0.1 µM): 0.32
relative viability (Wnt-C59 + Lapatinib; first compound 0.001 µM): 0.911
relative viability (Wnt-C59 + Lapatinib; first compound 0.01 µM): 0.851
relative viability (Wnt-C59 + Lapatinib; first compound 0.03162 µM): 1.03
relative viability (Wnt-C59 + Lapatinib; first compound 0.1 µM): 0.749
relative viability (Lapatinib + Trametinib; first compound 0.02 µM): 0.293
relative viability (Lapatinib + Trametinib; first compound 0.06325 µM): 0.617
relative viability (Lapatinib + Trametinib; first compound 0.2 µM): 0.69
relative viability (Lapatinib + Trametinib; first compound 0.6325 µM): 0.76
relative viability (Lapatinib + Trametinib; first compound 2 µM): 0.676
